Test results from the supplement of paper PMC10331698.
± gives the standard deviation of the averaged measurements.

Columns and labels:
Assay in all cases: level (log10 ratio to DMSO vehicle control); higher = higher biomarker level / cell amount than vehicle control
Conditions in all cases: in DMSO
[1] = compound: C=CC(=O)OCC(F)(F)C(F)(F)C(F)(F)C(F)(F)C(F)(F)C(F)(F)C(F)(F)F [1H,1H-Perfluorooctyl acrylate]
Method: (§1)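 BioMAP Diversity Plus panel of 12 human primary cell co-culture systems (3C, 4H, LPS, SAg, BT, BF4T, BE3C, CASM3C, HDF3CGF, KF3CT, MyoF, Mphg). Compounds were added 1 h before stimulation and left for 24 h (MyoF 48 h; BT 72 h for soluble read-outs or 6 d for IgG). Biomarkers were read by ELISA, cytotoxicity by SRB, PBMC viability and proliferation by Alamar Blue. Each well value was divided by the mean of 8 DMSO control wells on the same plate and log10 transformed; duplicate blinded samples were tested at 4 concentrations.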

[2] = compound: COC(=O)CCC(F)(F)C(F)(F)C(F)(F)C(F)(F)F [Methyl 2H,2H,3H,3H-perfluoroheptanoate]
Method: as §1

[3] = compound: FC(F)(F)C(F)(C(F)(F)F)C(F)(F)C(F)(F)CC1CO1 [3-(Perfluoro-3-methylbutyl)-1,2-propenoxide]
Method: as §1

Heptafluorobutyramide = compound: NC(=O)C(F)(F)C(F)(F)C(F)(F)F [Heptafluorobutyramide]
Method: as §1

Pentafluoropropionamide = compound: NC(=O)C(F)(F)C(F)(F)F [Pentafluoropropionamide]
Method: as §1

[4] = compound: O=C(O)C(F)(F)C(F)(F)C(F)(F)OC(F)(C(F)(F)F)C(F)(F)F [Perfluoro-4-isopropoxybutanoic acid]
Method: as §1

[5] = compound: OCCC(F)(F)C(F)(F)C(F)(F)C(F)(F)C(F)(F)C(F)(F)F [6:2 Fluorotelomer alcohol]
Method: as §1

Test System | level (log10) ([1]; 6700 nM) | level (log10) ([1]; 20000 nM) | level (log10) ([1]; 60000 nM) | level (log10) ([2]; 6700 nM) | level (log10) ([2]; 20000 nM) | level (log10) ([2]; 60000 nM) | level (log10) ([3]; 6700 nM) | level (log10) ([3]; 20000 nM) | level (log10) (Heptafluorobutyramide; 6700 nM) | level (log10) (Heptafluorobutyramide; 20000 nM) | level (log10) (Heptafluorobutyramide; 60000 nM) | level (log10) (Pentafluoropropionamide; 6700 nM) | level (log10) (Pentafluoropropionamide; 20000 nM) | level (log10) (Pentafluoropropionamide; 60000 nM) | level (log10) ([4]; 6700 nM) | level (log10) ([4]; 20000 nM) | level (log10) ([4]; 60000 nM) | level (log10) ([5]; 6700 nM) | level (log10) ([5]; 20000 nM)
MyoF:MMP-1 | -0.0135 ± 0.019 | -0.016 | 0.0275 ± 0.005 | -0.009 ± 0.0071 | -0.019 ± 0.011 | 0.0305 ± 0.12 | -0.007 ± 0.0085 | -0.014 ± 0.0057 | -0.0185 ± 0.018 | -0.0105 ± 0.049 | 0.027 ± 0.082 | -0.0305 ± 0.063 | -0.0255 ± 0.0064 | 0.016 ± 0.058 | -0.0155 ± 0.0092 | 0.0115 ± 0.013 | 0.045 ± 0.051 | 0 ± 0.016 | -0.0035 ± 0.005
MyoF:PAI-I | 0.005 ± 0.016 | -0.0005 ± 0.018 | -0.0065 ± 0.0078 | -0.003 | 0.0055 ± 0.0078 | 0.003 ± 0.014 | -0.0015 ± 0.013 | -0.0035 ± 0.015 | 0.0035 ± 0.00071 | 0.01 ± 0.0014 | -0.0055 ± 0.016 | 0.0075 ± 0.0021 | -0.002 ± 0.0071 | -0.004 ± 0.0057 | -0.0035 ± 0.015 | -0.007 ± 0.0042 | 0.006 ± 0.018 | 0.002 ± 0.0028 | 0.007 ± 0.0042
MyoF:SRB | -0.003 ± 0.011 | -0.012 ± 0.018 | -0.0335 ± 0.005 | -0.004 ± 0.0028 | 0.0065 ± 0.0035 | 0.0065 ± 0.0064 | 0.008 ± 0.0085 | 0.005 ± 0.0042 | -0.011 ± 0.017 | -0.0035 ± 0.0078 | -0.0005 ± 0.005 | 0.0045 ± 0.0021 | -0.007 ± 0.0057 | -0.0015 ± 0.0035 | -0.0055 ± 0.0021 | 0.0015 ± 0.00071 | -0.0035 ± 0.0064 | -0.002 ± 0.0085 | 0 ± 0.0028
